Assay results as given in US7348330B2, “1-azabicyclo [2,2,2] octan-3-one derivatives” (Aprea AB, priority 2000, dated 2008).

Experiments:
[1] = system: Saos-2-His-273 cells; experiment: WST-1 growth suppression assay; assay type: cell-based, human
Protocol: (§1) Saos-2-His-273 cell line stably transfected with construct allowing expression of mutant His-273 p53 in a tetracycline-dependent manner was used for screening (Selivanova et al., 1997). p53 expression was inhibited by incubation of cells with doxycycline (5 μg/ml). Cells were grown in 96-well plates at a density of 3000 cells per well with or without doxycycline and treated with 25 μM of the compounds from the NCI library of low molecular weight (LMW) compounds. After 48 hours of incubation the proliferative cell reagent WST-1 (Roche) was added to the cells. The degree of WST-1 reduction, which reflects cell viability, was measured by microplate reader at λ490 nm according to the manufacturer (Roche).
as §1, with “1997).” for “1997). p53 expression was inhibited by incubation of cells with doxycycline (5 μg/ml).”, “doxycycline. The treatment was done at a concentration of” for “doxycycline and treated with”, “each chemical” for “the compounds”, “is proportional to the” for “reflects”, “by a” for “by”
Saos-2-His-273 cells grown in the presence or absence of doxycycline and parental Saos-2 cells were treated with the structural analogs and analyzed as described above. The effect of structural analogs on cell growth was tested using different concentrations of the compounds, ranging from 2.5 to 25 μM. Compounds MIRA-2, MIRA-3 and PRIMA-2, PRIMA-3 were identified that were able to suppress the growth of Saos-2-His-273 cells expressing mutant p53 (tet−). […] In addition, compounds MIRA-2 and MIRA-3 suppressed the growth of cells in a mutant p53-dependent manner at 10 μM concentration, in contrast to 25 μM of compound MIRA-1 required for the selective effect.

[2] = molecular target: T1, endogenous Trp-282 mutant p53 (Homo sapiens, UniProt P04637, R282W); experiment: Band shift assay, BL-60 cell extracts; assay type: biochemical; conditions: cell extracts from Burkitt lymphoma BL-60 cells
T1 construct: endogenous Trp-282 mutant p53 in cell extracts from Burkitt lymphoma BL-60 cells; endogenous in cells; host or cells: Burkitt lymphoma BL-60 cells (cell extract)

[3] = system: HCT116 colon carcinoma cells that carry wild type p53; experiment: Western blot of p53 target genes p21 and MDM2; assay type: cell-based
[4] = system: 14 mutant p53 proteins; experiment: Band shift assays, extracts of tumor cell lines; assay type: biochemical, human; conditions: of 14 mutants tested
Protocol: The GST-p53 proteins were prepared as described (Selivanova et al., 1997). Band shift assays were performed in binding buffer containing 100 mM HEPES pH 7.5, 50 mM KCl , 1 mg/ml BSA, 0.1% Triton X-100, 2 mM MgCl2 and 1 mM DTT essentially as in (Selivanova et al., 1996).
The compound MIRA-1 restored the DNA binding of 3 out of 14 mutant p53 proteins (Table III).

[5] = system: recombinant wild type and mutant p53 proteins; experiment: ELISA of p53 conformation upon heating 30 min at 37° C.; assay type: biochemical, human; conditions: for appearance of PAb240 epitope (unfolding) upon heating: 37° C.; for PAb1620 epitope after heating: 30 min at 37° C.; for DO-1 non-conformational epitope: incubation with compounds
Protocol: Absorbance of the control sample incubated on ice was taken as 100%.
20 ng of GST-wtp53, GST-mtp53-175 and GST-mtp53-248 were heated at 37° C. for 30 min or kept on ice. The procedure was performed with or without tested compounds. The ELISA analyses were done as described by (Foster et al., 1999). Briefly, after the treatment, samples were diluted with coating buffer (150 mM KCL, 25 mM HEPES) supplemented with 10 mM DTT. The whole mixture was apply to ELISA plates (MaxiSorp, Nunc) and incubated at +4° C. for 35 min. The wells were washed with coating buffer. The wells were blocked by 5% skim milk in PBS by incubating at +4° C. for 1 h. […] Samples were incubated at +4° C. for 30 min. Wells were rinsed twice with PBS. After that, a secondary antibody (anti-mouse, conjugated with horse radish peroxidase) was incubated with samples at +4° C. for 30 min. Then plates were washed 5 times with PBS and a peroxidase substrate was added. An absorbance at λ405 nm was monitored by ELISA reader.

[6] = system: p53-null Saos-2 cells; experiment: FACS analysis of apoptosis (sub-G1, propidium iodide); assay type: cell-based, human; design: dose or concentration left out as unconfirmed
Protocol: Induction of apoptosis was determined by FACS analysis of ethanol fixed cells stained with propidium iodide (PI) as percentage of a sub-G1 population. […] The percentage of dead cells in non-treated cultures and in controls treated with caspase inhibitors only was subtracted. […] Hoechst staining was used to stain cell nuclei. […] The percentage of apoptotic cells was measured by FACS analysis as it was described in Figure.
Cells were placed on 12-well plate at a density of 30000/cm^2 and treated with compounds. After 48 h incubation cells were harvested by trypsinization, fixed with 70% ethanol, treated with RNase A (0.25 mg/ml) and stained with propidium iodide (0.02 mg/ml). Samples were analyzed on a Becton Dickinson FACScan. Data were analyzed by the CellQuest software, version 3.2.1.

[7] = system: SKOV-His-175 cells; experiment: p53-responsive EGFP reporter; assay type: cell-based, human
Source text: FIG. 9B, mutant p53-dependent activation of the wild-type p53-responsive EGFP reporter in PRIMA-1-treated SKOV-His-175 cells. […] FIG. 9C, MIRA-1 induced wild-type p53-responsive EGFP reporter in SKOV-His-175 cells.
The plasmids encoding the GST-human wild type p53 fusion protein and the GST-human mutant p53 proteins His 175 were described earlier (Selivanova et al., 1996). The p53-EGFP plasmid contains 13 synthetic p53 consensus DNA binding sites in front of the EGFP coding sequence. Transient transfections experiments were performed with Lipofectamine 2000 according to the manufacturer's recommendations (Invitrogen™ Life Technologies, Groningen, The Netherlands).
We also transiently transfected SKOV-His-175 cells with a p53-responsive EGFP reporter.

[8] = system: H1299-His-175 cells; experiment: Western blot of p53 target genes p21 and MDM2; assay type: cell-based, human
[9] = system: A431 cells that carry endogenous His-273 mutant p53; experiment: p53-responsive lacZ reporter; assay type: cell-based; conditions: 50 μM for 20 hours
[10] = absence of mutant p53 expression
[11] = cells expressing mutant p53, PRIMA-1 25 μM, MIRA-1 10 μM

Structure (SMILES)	concentration at which growth of mutant p53 containing cells is selectively suppressed ([1]; tet− vs tet+ and parental Saos-2, 48 hours, 2.5 to 25 μM tested) [µM]	restoration of sequence-specific DNA binding [2]	MDM2 and p21 protein levels [3]	mutant p53 proteins whose specific DNA binding was restored [4]	appearance of PAb240 epitope (unfolding) upon heating [5]	PAb1620 epitope after heating [5]	DO-1 non-conformational epitope [5]	induction of apoptosis ([6]; 48 hours)	EGFP reporter expression ([7]; 5μM for 24 hours)	induction of MDM2 and p21 [8, 10]	induction of MDM2 and p21 [8, 11]	growth of cells expressing mutant p53 (growth curves) ([1]; mutant p53 expressed)	growth of cells in the absence of mutant p53 expression ([1]; no mutant p53 expression)	lacZ reporter induction [9]	induction of apoptosis ([6]; 50, 75 and […], no p53 expression)	EGFP reporter expression ([7]; cells expressing mutant p53, 24 hours)	EGFP reporter expression ([7]; doxycycline (p53 off), 24 hours)
CCC(=O)OCN1C(=O)C=CC1=O [MIRA-1]	25	able to restore	did not cause any significant changes	3 out of 14	able to prevent unfolding	preserve the conformation-dependent epitope	not affected	not in p53-null Saos-2 cells	induction of EGFP was also observed	did not cause any induction	solid induction of both MDM2 and p21						
O=C1C2CCN(CC2)C1(CO)CO [PRIMA-1, 2,2-bis(hydroxymethyl)-1-azabicyclo[2,2,2]octan-3-one]			did not cause any significant changes	13 out of 14	able to prevent unfolding	preserve the conformation-dependent epitope	not affected			did not cause any induction	solid induction of both MDM2 and p21	completely inhibited growth	minor reduction in growth rate	appearance of lacZ-positive cells	much less efficient	strong induction of EGFP expression	did not express detectable levels of EGFP
